In ChEMBL document CHEMBL1201862, “PubChem BioAssay data set” (2004):
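Test compounds were applied to cells in 96-well plates for 48 hours at 5 doses. Here, GI50 denotes the concentration required for 50% inhibition of growth.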 Activity calls are given as the source filed them. No stated cut-off is given here; in the data, active = GI50 up to about 1.1 µM and inactive = higher.

How the values were obtained:
Assay in all cases: NCI tumour cell line growth inhibition, 48 h
SNB-19 = test system: SNB-19
SF-295 = test system: SF-295
MCF7 = test system: MCF7
SF-539 = test system: SF-539
Malme-3M = test system: Malme-3M
DU-145 = test system: DU-145
SF-268 = test system: SF-268
Hs-578T = test system: Hs-578T
IGROV-1 = test system: IGROV-1
786-0 = test system: 786-0
OVCAR-3 = test system: OVCAR-3
HCT-116 = test system: HCT-116
SK-MEL-2 = test system: SK-MEL-2
SK-MEL-28 = test system: SK-MEL-28
CCRF-CEM = test system: CCRF-CEM
HT-29 = test system: HT-29
KM12 = test system: KM12
M14 = test system: M14
UACC-62 = test system: UACC-62
MDA-MB-231 = test system: MDA-MB-231

Measured: GI50

CC1=C/C(O)CC(=O)Cc2nc(co2)C(=O)N2CCC=C2C(=O)OC(C(C)C)C(C)/C=C\C(=O)NC/C=C\1 (stereo not given)
inactive: SNB-19 89.3 µM | SF-295 48 µM | MCF7 19.1 µM | SF-539 30.1 µM | Malme-3M 11.7 µM | DU-145 27.1 µM | SF-268 16 µM | Hs-578T 20 µM | IGROV-1 16.6 µM | 786-0 20.8 µM | OVCAR-3 19.8 µM | HCT-116 14.5 µM | SK-MEL-2 17.4 µM | SK-MEL-28 19.6 µM | CCRF-CEM 21.6 µM | HT-29 15.5 µM | KM12 12.4 µM | M14 17.3 µM | UACC-62 16 µM | MDA-MB-231 23.9 µM
